Assay results published in the kinase profiling compilation of Christmann-Franck et al. (2016).

Key:
[1] = target: CHKA (human) (UniProt P35790); test: ADP detection assay-Luminescence
[2] = target: CHKB (human) (UniProt Q9Y259); test: ADP detection assay-Luminescence
[3] = target: DGKB (human) (UniProt Q9Y6T7); test: ADP detection assay-Luminescence
[4] = target: DGKG (human) (UniProt P49619); test: ADP detection assay-Luminescence
[5] = target: DGKZ (human) (UniProt Q13574); test: ADP detection assay-Luminescence
[6] = target: PI4KA (human) (UniProt P42356); test: ADP detection assay-Luminescence
PI4KA (human), sequence (P42356 whole entry, looked up): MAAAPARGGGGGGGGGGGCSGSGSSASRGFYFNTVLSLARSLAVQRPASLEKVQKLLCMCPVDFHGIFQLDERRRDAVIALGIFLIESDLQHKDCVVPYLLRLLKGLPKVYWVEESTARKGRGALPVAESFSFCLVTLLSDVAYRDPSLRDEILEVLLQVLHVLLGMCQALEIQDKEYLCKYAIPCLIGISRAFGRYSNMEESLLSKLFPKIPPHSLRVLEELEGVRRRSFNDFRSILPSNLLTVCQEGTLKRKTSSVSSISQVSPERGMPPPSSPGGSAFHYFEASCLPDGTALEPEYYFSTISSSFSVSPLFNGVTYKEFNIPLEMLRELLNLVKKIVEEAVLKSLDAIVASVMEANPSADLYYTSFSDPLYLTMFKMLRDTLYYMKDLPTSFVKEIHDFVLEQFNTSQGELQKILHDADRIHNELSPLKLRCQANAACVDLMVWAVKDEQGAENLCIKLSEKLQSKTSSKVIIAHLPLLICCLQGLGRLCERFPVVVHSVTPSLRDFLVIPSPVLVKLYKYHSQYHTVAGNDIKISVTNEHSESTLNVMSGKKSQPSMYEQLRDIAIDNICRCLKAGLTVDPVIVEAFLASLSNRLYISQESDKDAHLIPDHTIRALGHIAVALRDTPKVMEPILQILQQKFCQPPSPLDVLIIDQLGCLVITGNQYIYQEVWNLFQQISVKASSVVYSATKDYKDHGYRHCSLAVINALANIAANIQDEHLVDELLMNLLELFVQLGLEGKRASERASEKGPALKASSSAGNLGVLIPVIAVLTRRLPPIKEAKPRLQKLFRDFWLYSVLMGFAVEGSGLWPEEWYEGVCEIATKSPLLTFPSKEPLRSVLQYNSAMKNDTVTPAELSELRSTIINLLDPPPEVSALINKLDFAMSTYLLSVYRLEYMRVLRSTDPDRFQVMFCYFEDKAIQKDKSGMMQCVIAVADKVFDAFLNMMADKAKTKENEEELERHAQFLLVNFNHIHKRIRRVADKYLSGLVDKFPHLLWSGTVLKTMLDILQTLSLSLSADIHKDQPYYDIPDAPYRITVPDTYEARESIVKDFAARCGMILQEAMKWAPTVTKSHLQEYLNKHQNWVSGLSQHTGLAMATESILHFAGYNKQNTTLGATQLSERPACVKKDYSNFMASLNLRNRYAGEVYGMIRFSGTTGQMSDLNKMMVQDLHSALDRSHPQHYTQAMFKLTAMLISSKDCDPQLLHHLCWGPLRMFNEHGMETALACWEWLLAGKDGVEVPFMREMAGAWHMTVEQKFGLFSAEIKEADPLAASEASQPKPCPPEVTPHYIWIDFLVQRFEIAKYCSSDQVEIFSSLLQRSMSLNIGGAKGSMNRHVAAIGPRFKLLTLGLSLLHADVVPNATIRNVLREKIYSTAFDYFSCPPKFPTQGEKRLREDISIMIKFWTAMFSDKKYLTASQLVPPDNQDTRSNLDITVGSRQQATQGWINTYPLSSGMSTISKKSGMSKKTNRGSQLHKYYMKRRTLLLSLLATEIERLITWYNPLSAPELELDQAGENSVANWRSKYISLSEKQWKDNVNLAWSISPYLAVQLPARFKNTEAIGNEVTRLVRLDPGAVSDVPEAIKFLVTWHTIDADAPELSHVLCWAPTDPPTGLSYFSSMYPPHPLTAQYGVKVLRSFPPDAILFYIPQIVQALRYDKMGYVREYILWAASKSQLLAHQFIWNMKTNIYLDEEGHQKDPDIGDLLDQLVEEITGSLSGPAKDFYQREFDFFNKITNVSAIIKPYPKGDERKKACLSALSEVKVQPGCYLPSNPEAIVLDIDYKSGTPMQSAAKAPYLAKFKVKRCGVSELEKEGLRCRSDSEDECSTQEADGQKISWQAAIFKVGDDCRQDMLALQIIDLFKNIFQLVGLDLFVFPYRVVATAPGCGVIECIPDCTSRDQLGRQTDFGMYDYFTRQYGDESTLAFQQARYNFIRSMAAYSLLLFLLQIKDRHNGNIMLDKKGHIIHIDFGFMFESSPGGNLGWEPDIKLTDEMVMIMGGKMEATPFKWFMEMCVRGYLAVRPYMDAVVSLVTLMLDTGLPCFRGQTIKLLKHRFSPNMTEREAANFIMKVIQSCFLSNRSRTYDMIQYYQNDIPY

[7] = target: PI4KB (human) (UniProt Q9UBF8); test: ADP detection assay-Luminescence
PI4KB (human), sequence (Q9UBF8 whole entry, looked up): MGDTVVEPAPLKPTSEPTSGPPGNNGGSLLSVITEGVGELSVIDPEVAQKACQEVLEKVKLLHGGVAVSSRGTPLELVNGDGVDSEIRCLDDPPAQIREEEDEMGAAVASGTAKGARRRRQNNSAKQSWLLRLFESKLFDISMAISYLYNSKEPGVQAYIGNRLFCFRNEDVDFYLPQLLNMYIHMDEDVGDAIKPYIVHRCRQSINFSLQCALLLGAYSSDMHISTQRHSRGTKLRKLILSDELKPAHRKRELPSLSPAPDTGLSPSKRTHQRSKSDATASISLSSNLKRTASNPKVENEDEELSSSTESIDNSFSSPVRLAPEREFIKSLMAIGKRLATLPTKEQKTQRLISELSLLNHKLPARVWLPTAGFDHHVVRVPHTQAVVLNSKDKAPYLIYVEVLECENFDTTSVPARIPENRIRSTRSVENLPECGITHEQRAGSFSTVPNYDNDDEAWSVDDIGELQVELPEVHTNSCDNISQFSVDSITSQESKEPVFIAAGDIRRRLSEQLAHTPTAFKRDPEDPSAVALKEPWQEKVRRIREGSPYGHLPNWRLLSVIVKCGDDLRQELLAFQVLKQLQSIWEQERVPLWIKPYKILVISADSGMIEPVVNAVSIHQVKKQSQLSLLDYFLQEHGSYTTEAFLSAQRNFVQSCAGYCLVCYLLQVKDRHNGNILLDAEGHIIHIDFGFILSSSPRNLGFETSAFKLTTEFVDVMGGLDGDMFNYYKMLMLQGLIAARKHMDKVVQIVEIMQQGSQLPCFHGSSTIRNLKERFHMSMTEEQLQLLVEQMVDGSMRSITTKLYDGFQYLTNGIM

[8] = target: PIK3C3 (human) (UniProt Q8NEB9); test: ADP detection assay-Luminescence
[9] = target: PIK3CA PIK3R1 (human) (UniProt P27986+P42336); test: ADP detection assay-Luminescence
[10] = target: PIK3CB PIK3R1 (human) (UniProt P27986+P42338); test: ADP detection assay-Luminescence
[11] = target: PIK3CD PIK3R1 (human) (UniProt O00329+P27986); test: ADP detection assay-Luminescence
[12] = target: PIK3CG (human) (UniProt P48736); test: ADP detection assay-Luminescence
[13] = target: PIP4K2A (human) (UniProt P48426); test: ADP detection assay-Luminescence
[14] = target: SPHK1 (human) (UniProt Q9NYA1); test: ADP detection assay-Luminescence
[15] = target: SPHK2 (human) (UniProt Q9NRA0); test: ADP detection assay-Luminescence
[16] = system: AKT2 (human), P31751 [S474D]; test: radiometric filter-binding kinase assay
AKT2 (human), P31751 [S474D], sequence (P31751 whole entry S474D, looked up): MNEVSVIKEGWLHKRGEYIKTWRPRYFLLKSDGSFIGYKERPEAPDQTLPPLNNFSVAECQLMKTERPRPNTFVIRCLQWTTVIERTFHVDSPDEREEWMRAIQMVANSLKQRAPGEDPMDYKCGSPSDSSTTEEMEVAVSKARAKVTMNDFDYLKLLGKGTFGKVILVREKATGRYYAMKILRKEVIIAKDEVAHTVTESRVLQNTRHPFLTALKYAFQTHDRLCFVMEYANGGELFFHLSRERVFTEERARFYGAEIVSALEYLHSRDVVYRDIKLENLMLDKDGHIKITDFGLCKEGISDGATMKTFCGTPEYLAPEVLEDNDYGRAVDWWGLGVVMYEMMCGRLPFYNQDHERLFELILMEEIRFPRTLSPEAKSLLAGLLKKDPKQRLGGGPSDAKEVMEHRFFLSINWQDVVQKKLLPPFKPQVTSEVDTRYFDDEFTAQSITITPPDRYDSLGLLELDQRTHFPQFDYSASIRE

[17] = target: HIPK3 (human) (UniProt Q9H422); test: radiometric filter-binding kinase assay
[18] = target: MAPK14 (human) (UniProt Q16539); test: radiometric filter-binding kinase assay
[19] = target: MAPK9 (human) (UniProt P45984); test: radiometric filter-binding kinase assay
MAPK9 (human), sequence (P45984 whole entry, looked up): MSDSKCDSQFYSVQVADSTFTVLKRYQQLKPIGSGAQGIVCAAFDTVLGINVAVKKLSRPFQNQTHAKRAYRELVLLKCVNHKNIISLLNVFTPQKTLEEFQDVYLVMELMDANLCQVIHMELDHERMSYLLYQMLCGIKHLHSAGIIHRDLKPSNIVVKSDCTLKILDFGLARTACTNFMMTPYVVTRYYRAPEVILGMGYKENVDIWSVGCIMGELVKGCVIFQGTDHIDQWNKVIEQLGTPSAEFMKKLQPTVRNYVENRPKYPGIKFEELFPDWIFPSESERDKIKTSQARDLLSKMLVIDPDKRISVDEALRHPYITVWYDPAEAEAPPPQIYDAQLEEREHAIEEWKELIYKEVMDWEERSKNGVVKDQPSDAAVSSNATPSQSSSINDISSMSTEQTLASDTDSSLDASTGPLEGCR

[20] = target: MAPKAPK3 (human) (UniProt Q16644); test: radiometric filter-binding kinase assay
MAPKAPK3 (human), sequence (Q16644 whole entry, looked up): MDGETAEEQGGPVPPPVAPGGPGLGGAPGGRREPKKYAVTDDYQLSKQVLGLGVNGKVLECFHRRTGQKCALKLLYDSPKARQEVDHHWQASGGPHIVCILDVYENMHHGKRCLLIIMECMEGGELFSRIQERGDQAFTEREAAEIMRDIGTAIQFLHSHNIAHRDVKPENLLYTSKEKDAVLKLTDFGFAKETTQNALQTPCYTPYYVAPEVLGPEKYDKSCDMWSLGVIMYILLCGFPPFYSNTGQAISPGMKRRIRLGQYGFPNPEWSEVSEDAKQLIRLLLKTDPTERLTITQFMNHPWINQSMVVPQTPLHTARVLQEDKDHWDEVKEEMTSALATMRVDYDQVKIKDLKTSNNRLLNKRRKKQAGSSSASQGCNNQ

CHKA (human), sequence (P35790 whole entry, looked up): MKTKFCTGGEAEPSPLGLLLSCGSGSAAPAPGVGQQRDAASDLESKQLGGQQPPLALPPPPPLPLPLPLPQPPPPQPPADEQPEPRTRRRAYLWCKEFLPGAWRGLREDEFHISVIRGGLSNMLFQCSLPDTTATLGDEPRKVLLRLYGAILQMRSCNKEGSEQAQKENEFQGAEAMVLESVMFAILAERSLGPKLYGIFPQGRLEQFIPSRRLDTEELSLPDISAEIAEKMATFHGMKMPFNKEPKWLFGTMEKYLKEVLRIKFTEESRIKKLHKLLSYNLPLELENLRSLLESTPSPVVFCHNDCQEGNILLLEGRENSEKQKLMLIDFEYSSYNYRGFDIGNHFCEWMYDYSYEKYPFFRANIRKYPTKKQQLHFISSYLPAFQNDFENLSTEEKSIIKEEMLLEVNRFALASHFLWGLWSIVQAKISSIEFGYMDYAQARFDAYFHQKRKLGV
CHKB (human), sequence (Q9Y259 whole entry, looked up): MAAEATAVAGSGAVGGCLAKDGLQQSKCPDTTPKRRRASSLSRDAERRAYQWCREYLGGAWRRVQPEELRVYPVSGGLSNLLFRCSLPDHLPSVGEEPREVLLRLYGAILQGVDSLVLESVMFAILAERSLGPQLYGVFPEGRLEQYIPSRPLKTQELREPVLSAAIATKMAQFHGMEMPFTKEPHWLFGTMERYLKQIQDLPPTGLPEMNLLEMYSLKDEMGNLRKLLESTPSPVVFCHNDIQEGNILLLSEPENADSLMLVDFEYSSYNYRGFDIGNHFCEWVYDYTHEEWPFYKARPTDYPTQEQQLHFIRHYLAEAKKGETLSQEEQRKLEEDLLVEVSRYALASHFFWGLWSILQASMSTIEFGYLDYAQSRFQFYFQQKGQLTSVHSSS

In the case of `CNc1nc(-c2ccc3c(N)n[nH]c3c2)cc(N2C[C@@H](C(=O)NC3CCCCC3)CC[C@H]2C)n1`, the residual activity ([1]; compound 0.1 µM) is reported as 102%, the residual activity ([1]; compound 1.0 µM) is reported as 94% and the residual activity ([1]; compound 10.0 µM) is reported as 101%. For the same compound, the residual activity ([2]; compound 0.1 µM) was 113%, the residual activity ([2]; compound 1.0 µM) was 95% and the residual activity ([2]; compound 10.0 µM) was 87%. For the same compound, the residual activity ([3]; compound 0.1 µM) was 99%, the residual activity ([3]; compound 1.0 µM) was 100% and the residual activity ([3]; compound 10.0 µM) was 93%. It also gave a residual activity ([4]; compound 0.1 µM) of 99%, a residual activity ([4]; compound 1.0 µM) of 100% and a residual activity ([4]; compound 10.0 µM) of 101%. It also gave a residual activity ([5]; compound 0.1 µM) of 110%, a residual activity ([5]; compound 1.0 µM) of 86% and a residual activity ([5]; compound 10.0 µM) of 101%. The residual activity ([6]; compound 0.1 µM) was 100%, the residual activity ([6]; compound 1.0 µM) was 94% and the residual activity ([6]; compound 10.0 µM) was 103%. For the same compound, the residual activity ([7]; compound 0.1 µM) was 99%, the residual activity ([7]; compound 1.0 µM) was 89% and the residual activity ([7]; compound 10.0 µM) was 97%. It also gave a residual activity ([8]; compound 0.1 µM) of 96%, a residual activity ([8]; compound 1.0 µM) of 102% and a residual activity ([8]; compound 10.0 µM) of 89%. For the same compound, the residual activity ([9]; compound 0.1 µM) was 106%, the residual activity ([9]; compound 1.0 µM) was 105% and the residual activity ([9]; compound 10.0 µM) was 104%. It also gave a residual activity ([10]; compound 0.1 µM) of 102%, a residual activity ([10]; compound 1.0 µM) of 108% and a residual activity ([10]; compound 10.0 µM) of 97%. It also gave a residual activity ([11]; compound 0.1 µM) of 119%, a residual activity ([11]; compound 1.0 µM) of 104% and a residual activity ([11]; compound 10.0 µM) of 73%. The residual activity ([12]; compound 0.1 µM) was 98%, the residual activity ([12]; compound 1.0 µM) was 83% and the residual activity ([12]; compound 10.0 µM) was 70%. The residual activity ([13]; compound 0.1 µM) was 102%, the residual activity ([13]; compound 1.0 µM) was 97% and the residual activity ([13]; compound 10.0 µM) was 86%. For the same compound, the residual activity ([14]; compound 0.1 µM) was 106%, the residual activity ([14]; compound 1.0 µM) was 102% and the residual activity ([14]; compound 10.0 µM) was 94%. The residual activity ([15]; compound 0.1 µM) was 103%, the residual activity ([15]; compound 1.0 µM) was 100% and the residual activity ([15]; compound 10.0 µM) was 91%. It also gave a residual activity ([16]; compound 0.01 µM) of 125%, a residual activity ([16]; compound 0.1 µM) of 118% and a residual activity ([16]; compound 1.0 µM) of 100%. It also gave a residual activity ([17]; compound 0.01 µM) of 111%, a residual activity ([17]; compound 0.1 µM) of 105% and a residual activity ([17]; compound 1.0 µM) of 106%. For the same compound, the residual activity ([18]; compound 0.01 µM) was 105%, the residual activity ([18]; compound 0.1 µM) was 109% and the residual activity ([18]; compound 1.0 µM) was 103%. The residual activity ([19]; compound 0.01 µM) was 117%, the residual activity ([19]; compound 0.1 µM) was 126% and the residual activity ([19]; compound 1.0 µM) was 120%. It also gave a residual activity ([20]; compound 0.01 µM) of 112%, a residual activity ([20]; compound 0.1 µM) of 112% and a residual activity ([20]; compound 1.0 µM) of 100%.
